# Test results as given in patent US11524968B2, “Heterocyclic compound as a protein kinase inhibitor” (HK inno.N Corporation, priority 2017, dated 2022).
# Biological target: JAK1 (Homo sapiens (Human), UniProt P23458)
# Assay: Analysis of JAK1 activity inhibition ability (ADP-Glo Kinase Assay)
# Assay type: biochemical
# Settings: JAK1 enzyme, ADP-Glo luminescence, ATP 250 uM, IRS-itide substrate, 30° C. 40 minutes; read-out: IC50
# Procedure, shortened: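 JAK1 enzyme, IRS-itide substrate (40 ng/mL) and 250 uM ATP, both as prepared in kinase buffer (Tris-HCl pH 7.5, MgCl2, BSA, DTT), reacted with compound 40 min at 30 °C. ADP formed was detected by ADP-Glo luminescence; IC50 is the concentration giving 50% inhibition versus control.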
# Sequence of JAK1 (P23458 whole entry): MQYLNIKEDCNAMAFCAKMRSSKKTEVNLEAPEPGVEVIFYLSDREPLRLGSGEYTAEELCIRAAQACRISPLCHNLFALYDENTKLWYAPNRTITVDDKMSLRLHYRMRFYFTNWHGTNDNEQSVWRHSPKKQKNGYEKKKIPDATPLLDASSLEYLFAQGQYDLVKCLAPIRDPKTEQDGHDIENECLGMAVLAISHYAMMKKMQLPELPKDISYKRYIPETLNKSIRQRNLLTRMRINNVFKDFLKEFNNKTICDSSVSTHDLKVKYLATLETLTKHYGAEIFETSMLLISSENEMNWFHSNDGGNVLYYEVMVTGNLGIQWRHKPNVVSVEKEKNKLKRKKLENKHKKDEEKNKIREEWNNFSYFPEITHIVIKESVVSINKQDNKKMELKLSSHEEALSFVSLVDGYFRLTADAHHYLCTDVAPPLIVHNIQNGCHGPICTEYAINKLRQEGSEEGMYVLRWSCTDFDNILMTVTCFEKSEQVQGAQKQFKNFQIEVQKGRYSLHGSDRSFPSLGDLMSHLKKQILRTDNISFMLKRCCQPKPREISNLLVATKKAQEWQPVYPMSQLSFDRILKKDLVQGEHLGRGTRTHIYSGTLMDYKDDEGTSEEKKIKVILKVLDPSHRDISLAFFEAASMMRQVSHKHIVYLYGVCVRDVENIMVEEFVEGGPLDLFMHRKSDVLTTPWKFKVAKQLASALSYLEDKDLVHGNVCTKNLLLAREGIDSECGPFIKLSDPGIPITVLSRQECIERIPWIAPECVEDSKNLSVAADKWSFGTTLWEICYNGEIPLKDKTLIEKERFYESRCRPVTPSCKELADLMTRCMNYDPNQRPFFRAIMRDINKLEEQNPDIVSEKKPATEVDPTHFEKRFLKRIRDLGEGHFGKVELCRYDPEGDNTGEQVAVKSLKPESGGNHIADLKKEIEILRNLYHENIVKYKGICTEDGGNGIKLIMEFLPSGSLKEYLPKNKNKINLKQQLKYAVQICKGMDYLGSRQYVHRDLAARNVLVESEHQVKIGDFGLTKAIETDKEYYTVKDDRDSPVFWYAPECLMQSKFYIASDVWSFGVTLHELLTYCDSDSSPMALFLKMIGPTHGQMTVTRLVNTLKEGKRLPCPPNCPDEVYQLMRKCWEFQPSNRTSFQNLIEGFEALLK
row,IC50 [nM],Structure (SMILES)
1,20 to 200,"CCS(=O)(=O)Nc1ccc(-c2nc(Nc3ccccc3)nc3[nH]ccc23)cc1F [Example 719, N-(2-fluoro-4-(2-(phenylamino)-7H-pyrrolo[2,3-d]pyrimidin-4-yl)phenyl)ethanesulfonamide]"
2,20 to 200,"CCS(=O)(=O)Nc1ccc(-c2nc(Nc3ccccc3)nc3[nH]ccc23)cc1 [Example 720, N-(4-(2-(phenylamino)-7H-pyrrolo[2,3-d]pyrimidin-4-yl)phenyl)ethanesulfonamide]"

row,Structure (SMILES),IC50 [nM]
1,"N#CCC(=O)N1C2CCC1CN(c1nc(Nc3ccccc3)nc3[nH]ccc13)C2 [Example 721, 3-oxo-3-(3-(2-(phenylamino)-7H-pyrrolo[2,3-d]pyrimidin-4-yl)-3,8-diazabicyclo[3.2.1]octan-8-yl)propanenitrile]",20 to 200
